Laboratory results taken from a compilation of properties of binary mixtures (doi:10.1590/0104-6632.20180352s20160280).

Assay: xn = mol fraction of the nth substance listed
Settings: 100 kPa

O=C[O-].OCC[NH2+]CCO + O
viscosity [mPa·s]
Settings	x1 = 0.0292	x1 = 0.075	x1 = 0.1516	x1 = 0.2184	x1 = 0.3185	x1 = 0.5155	x1 = 0.5932	x1 = 0.7378	x1 = 0.7987	x1 = 1
293.15 K	1.69	–	8.2	16.1	–	112	133	243	329	–
303.15 K	–	2.5	5.9	11	23.2	65	76	132	–	242
313.15 K	1.1	–	4.48	8	15.8	40.7	46.6	77	99	135
323.15 K	0.93	1.64	3.51	6	11.3	27.1	30.6	49	61	82
333.15 K	0.8	1.38	2.82	4.68	–	19	21.2	32.8	–	53
343.15 K	0.7	1.18	2.33	3.75	6.5	13.9	–	23	27.8	–

O + O=C[O-].OCC[NH2+]CCO
x2 = 0
Settings	viscosity [mPa·s]
293.15 K	1
303.15 K	0.82
333.15 K	0.5
343.15 K	0.451
